Measurements reported in PubChem BioAssay (NCI).
Where “and” joins values, the source holds several entries; their conditions need not be identical. Identical values can stand only once.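 Briefly, cells in 96-well plates were exposed to five compound concentrations for 48 h, and endpoints were estimated by linear interpolation. GI50: concentration for 50% inhibition of growth. TGI denotes the concentration required for complete inhibition of growth.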 Residues, ends and D or L forms follow the SMILES beside them. *: point of attachment. Cbz = O=C(OCc1ccccc1)*

Assays:
Experiment in all cases: NCI anticancer screen, dose series, 48 h
[1] = test system: OVCAR-4 ovarian
[2] = test system: DU-145 prostate
[3] = test system: HCC-2998 colon
[4] = test system: HCT-15 colon
[5] = test system: SK-OV-3 ovarian
[6] = test system: TK-10 renal
[7] = test system: MDA-MB-435
[8] = test system: SK-MEL-28 melanoma

SMILES | GI50 [1] [µM] | TGI [1] [µM] | GI50 [2] | TGI [2] | GI50 [3] | TGI [3] | GI50 [4] | TGI [4] | GI50 [5] [µM] | TGI [5] [µM] | GI50 [6] | TGI [6] | TGI [7] | GI50 [8] | TGI [8] [µM] | GI50 [7] [µM]
CN1CCN(CCCN2c3ccccc3Sc3ccc(Cl)cc32)CC1 | 5.74 | 12.4 | 6.53 µM and 50.9 µM | 13.5 µM and 94.6 µM | 3.53 µM | 10.3 µM | 5.12 µM and 48 µM | 11.5 µM and 77.8 µM | 6.93 | 13.8 | 7.18 µM and 51.8 µM | 14.1 µM and 89 µM | 6.02 µM and 58.6 µM | – | – | –
COc1cc(CCNC(=O)OC(C)(C)C)c2c(c1OC)SSSSS2 | 2.05 | 4.82 | – | – | – | – | 2.45 µM | 5.78 µM | 2.8 | 6.05 | 2.63 µM | 5.5 µM | 4.78 µM | 1.9 µM | 3.68 | 2.28
C=CCOC(=O)Nc1cccn([C@H](CC(C)C)C(=O)NCCC(C)C)c1=O | 28.1 | > 100 | > 100 µM | > 100 µM | – | – | 84.5 µM | > 100 µM | > 100 | > 100 | > 100 µM | > 100 µM | > 100 µM | > 100 µM | > 100 | > 100
NC(N)=N/N=C/c1c(-c2cccnc2)nc2sc(Cl)cn12 | – | – | – | – | 14.4 µM | 27.5 µM | 14.9 µM | 28.1 µM | – | – | 15.4 µM | 29.3 µM | 30.5 µM | – | – | 16.6
COc1cc2nc3cc([N+](=O)[O-])ccc3c(NCCNCC(C)O)c2cc1OC (centres undefined) | 0.886 | 2.92 | 0.445 µM | 2.2 µM | – | – | 3.27 µM | 13.1 µM | 1.98 | 5.35 | 1.72 µM | 5.71 µM | 1.98 µM | – | – | 0.572
OCC1CCCC1O (centres undefined) | – | > 100 | – | > 100 µM | – | > 100 µM | – | > 100 µM | – | – | – | > 100 µM | > 100 µM | – | > 100 | –
COC(=O)CNc1nc(N(C)O)nc(N(C)O)n1 | 2.85 | > 100 | 2.15 µM | 45 µM | – | – | 0.551 µM | > 100 µM | 10.3 | > 100 | 1.61 µM | > 100 µM | > 100 µM | 4.53 µM | > 100 | 10.5
O=C(c1ccccc1)c1nc2ccc(C(F)(F)F)cc2nc1N1CCN(c2ccccc2)CC1 | – | – | 57.6 µM | > 100 µM | – | – | 20.5 µM | 50.1 µM | > 100 | > 100 | 30.7 µM | 74.7 µM | > 100 µM | – | – | 35.6
COc1ccc2nc3cccc([N+](=O)[O-])c3c(NC(C)CN(C)C)c2c1 (centres undefined) | 2 | 4.65 | 1.89 µM | 14.2 µM | – | – | 3.71 µM | – | 2.62 | 9.14 | 2.2 µM | 9.59 µM | – | 3.05 µM | – | –
Cc1sc2c(c1C)C(c1ccc(Cl)cc1)=N[C@@H](CC(=O)NCCCN1CCN(C)CC1)c1nnc(C)n1-2 | 0.748 | > 100 | > 100 µM | > 100 µM | 2.55 µM | > 100 µM | 16.8 µM | > 100 µM | 0.309 | > 42.3 | – | – | > 100 µM | > 30 µM | > 100 | 0.621
O=C1CC(CC(OCc2ccccc2)C(OCc2ccccc2)C(COCc2ccccc2)OCc2ccccc2)CC(=O)N1 (centres undefined) | – | > 100 | > 100 µM and 27.1 µM | > 100 µM | > 100 µM and 12.9 µM | > 100 µM and 42.9 µM | – | > 100 µM and 47.2 µM | – | – | – | > 100 µM | > 100 µM and 21.7 µM | > 100 µM and 21.4 µM | > 100 | –
CN(C)CCNC(=O)c1ccc2oc3cc4ccccc4c(=O)n3c2c1 | 7.6 | > 100 | 33.4 µM | > 100 µM | – | – | 28.2 µM | > 100 µM | 63.8 | > 100 | 21.6 µM | 72.3 µM | > 100 µM | 26.6 µM | > 100 | 42.1
CC(C)C[C@@H](C=O)NC(=O)[C@H](CC(C)C)NC(=O)[C@H](CC(C)C)NC(=O)OCc1ccccc1 (Cbz-Leu-Leu-Leu-aldehyde) | – | – | 0.53 µM | 10.6 µM | 0.24 µM | 0.631 µM | 0.465 µM | 10.2 µM | 0.614 | 5.34 | 0.27 µM | 0.893 µM | – | 0.419 µM | 11.6 | –
COc1cc(CCC(=O)NC[C@@H](O)c2ccccc2)ccc1O | > 100 | > 100 | > 100 µM | > 100 µM | – | – | > 100 µM | > 100 µM | > 100 | > 100 | > 100 µM | > 100 µM | > 100 µM | – | – | > 100
COc1ccc(-c2[nH]nc(N)c2-c2cc(OC)c(OC)c(OC)c2)cc1 | 1.62 | > 100 | 0.0354 µM | 1.76 µM | 0.0396 µM | 1.4 µM | 0.0345 µM | > 100 µM | 0.0417 | 2.2 | – | – | 0.0446 µM | – | – | 0.0106
